Results on 10 molecules are retold here after patent US11377441B2, “Covalent inhibitors of KRAS” (Araxes Pharma LLC, priority 2017, dated 2022).

The target of this test is T1, KRAS G12C 1-169, his-tagged protein, GDP-loaded (Homo sapiens, UniProt P01116, G12C).
T1 construct: KRAS G12C 1-169, his-tagged protein, GDP-loaded
Put plainly: Biochemical assay: covalent modification of KRAS G12C measured by mass spectrometry (RapidFire/TOF or Q-Exactive). Conditions: covalent binding to (modification of) KRAS G12C after a ten minute incubation period. The class given is binding. In short, it runs like this:
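Intact-mass readout (TOF or Q-Exactive, charge-envelope deconvolution) gives percent covalent adduct from modified and unmodified species. Compound at 10, 30 or 100 μM was incubated at room temperature for 10 min to 24 h with 2 μM or 0.5 μM GDP-bound KRAS G12C 1-169 in Hepes/NaCl/MgCl2 buffer, then acid-quenched.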

Take `C=CC(=O)N1C[C@H](C)N(c2nc(N3CC(N(C)C)C3)nc3c(F)c(-c4cccc5c4N(C)C(=O)C5)c(Cl)cc23)C[C@H]1C` [Compound 262, 7-(4-((2S,5R)-4-acryloyl-2,5-dimethylpiperazin-1-yl)-6-chloro-2-(3-(dimethylamino)azetidin-1-yl)-8-fluoroquinazolin-7-yl)-1-methylindolin-2-one]: the Binding % result was “+ (+ indicates binding activity greater than 0% and up to 50%)”.
Under `C=CC(=O)N1C[C@H](C)N(c2nc(N3CC(N(C)C)C3)nc3c(F)c(-c4c(C)ccc5c4NC(=O)C5)c(Cl)cc23)C[C@H]1C` [Compound 263, 7-(4-((2S,5R)-4-acryloyl-2,5-dimethylpiperazin-1-yl)-6-chloro-2-(3-(dimethylamino)azetidin-1-yl)-8-fluoroquinazolin-7-yl)-6-methylindolin-2-one] stands “+ (+ indicates binding activity greater than 0% and up to 50%)”; under `C=CC(=O)N1C[C@H](C)N(c2nc(OC3CC(N(C)C)C3)nc3c(F)c(-c4c(C)ccc5[nH]ncc45)c(Cl)cc23)C[C@H]1C` (stereo partly drawn) [Compound 264, 1-((2R,5S)-4-(6-chloro-2-(3-(dimethylamino)cyclo-butoxy)-8-fluoro-7-(5-methyl-1H-indazol-4-yl)quinazolin-4-yl)-2,5-dimethylpiperazin-1-yl)prop-2-en-1-one], “+++ (+++ indicates binding activity greater than 80%)”.
With `C=CC(=O)N1C[C@H](C)N(c2nc(N3CC(N(C)C)C3)nc3c(F)c(N4CCCc5ccccc54)c(Cl)cc23)C[C@H]1C` [Compound 265, 1-((2R,5S)-4-(6-chloro-7-(3,4-dihydroquinolin-1(2H)-yl)-2-(3-(dimethylamino)azetidin-1-yl)-8-fluoroquinazolin-4-yl)-2,5-dimethylpiperazin-1-yl)prop-2-en-1-one], the Binding % result is reported as “++ (++ indicates binding activity from 50 to 80%)”.
Regarding `C=CC(=O)N1CCN(c2nc(N3CC(N(C)C)C3)nc3c(F)c(-c4c(C)ccc5cn[nH]c45)c(Cl)cc23)CC1CC#N` (stereo not shown) [Compound 266, 2-(1-acryloyl-4-(6-chloro-2-(3-(dimethylamino)azetidin-1-yl)-8-fluoro-7-(6-methyl-1H-indazol-7-yl)quinazolin-4-yl)piperazin-2-yl)acetonitrile], the Binding % result is given as “++ (++ indicates binding activity from 50 to 80%)”.
Under `C=CC(=O)N1CCN(c2nc(N3CC(N(C)C)C3)nc3c(F)c(-c4c(C)ccc5[nH]ncc45)c(Cl)cc23)CC1CC#N` (stereo not shown) [Compound 267, 2-(1-acryloyl-4-(6-chloro-2-(3-(dimethyalmino)azetidin-1-yl)-8-fluoro-7-(5-methyl-1H-indazol-4-yl)quinazolin-4-yl)piperazin-2-yl)acetonitrile] stands “+++ (+++ indicates binding activity greater than 80%)”; under `C=CC(=O)N1CCN(c2nc(OC[C@@H]3CCCN3C)nc3c(F)c(-c4c(C)ccc5cn[nH]c45)c(Cl)cc23)CC1CC#N` (stereo partly drawn) [Compound 268, 2-(1-acryloyl-4-(6-chloro-8-fluoro-7-(6-methyl-1H-indazol-7-yl)-2-(((S)-1-methylpyrrolidin-2-yl)methoxy)quinazolin-4-yl)piperazin-2-yl)acetonitrile], “+++ (+++ indicates binding activity greater than 80%)”; under `C=CC(=O)N1CCN(c2nc(N3CC(N(C)C)C3)nc3c(F)c(-c4c(C)ccc5cnn(C)c45)c(Cl)cc23)CC1CC#N` (stereo not shown) [Compound 269, 2-(1-acryloyl-4-(6-chloro-7-(1,6-dimethyl-1H-indazol-7-yl)-2-(3-(dimethylamino)azetidin-1-yl)-8-fluoroquinazolin-4-yl)piperazin-2-yl)acetonitrile], “+++ (+++ indicates binding activity greater than 80%)”.
Turning to `C=CC(=O)N1CCN(c2nc(N3CC(N(C)C)C3)nc3c(F)c(-c4c(C)ccc5[nH]nc(C)c45)c(Cl)cc23)CC1CC#N` (stereo not shown) [Compound 270, 2-(1-acryloyl-4-(6-chloro-7-(3,5-dimethyl-1H-indazol-4-yl)-2-(3-(dimethylamino)azetidin-1-yl)-8-fluoroquinazolin-4-yl)piperazin-2-yl)acetonitrile], the Binding % result is given as “+++ (+++ indicates binding activity greater than 80%)”.
`C=CC(=O)N1CCN(c2nc(OC[C@@H]3CCCN3C)nc3c(F)c(-c4c(C)ccc5[nH]ncc45)c(Cl)cc23)CC1CC#N` (stereo partly drawn) [Compound 271, 2-(1-acryloyl-4-(6-chloro-8-fluoro-7-(5-methyl-1H-indazol-4-yl)-2-(((S)-1-methylpyrrolidin-2-yl)methoxy)quinazolin-4-yl)piperazin-2-yl)acetonitrile]: the Binding % result is “+++ (+++ indicates binding activity greater than 80%)”.
